# Test: thermal analysis (DSC) of solid dispersions, conversion to amorphous form
# Assay type: physicochemical
# Procedure: HPC and FRC8653, in the propotion of 1, 2, 3, 4 or 5 parts by weight of HPC based on one part by weight of FRC8653, were added to the mixed solvent of methanol/dichloromethane and dissolved, followed by removal of the solvent and drying. The samples obtained were subjected to thermal analysis (DSC).
# Both HP55 (Shin-Etsu Chemical Co.) and FRC8653, in the proportion of 1, 2, 3, 4 or 5 parts by weight of HP55 based on one part by weight of FRC8653, were added to the mixed solvent of methanol/dichloromethane and dissolved, followed by removal of the solvent and drying in order to subject to thermal analysis (DSC). The amount of HP55 necessary to convert the FRC8653 into its amorphous form was 2 parts by weight or more per one part by weight of FRC8653.
compound,measurement,setting,value
"COCCOC(=O)C1=C(C)NC(C)=C(C(=O)OC/C=C/c2ccccc2)C1c1cccc([N+](=O)[O-])c1 (racemic) [FRC8653, 2-methoxyethyl (E)-3-phenyl-2-propen-1-yl (+/-)-1,4-dihydro-2,6-dimethyl-4-(3-nitrophenyl)-3,5-pyridinedicarboxylate]",amount of HPC required to convert FRC8653 into its amorphous form,Fig. 3,≥ 4 parts by weight per one part b
same,amount of HP55 necessary to convert the FRC8653 into its amorphous form,Fig. 6,≥ 2 parts by weight per one part b
